Measurements as given in PMC3520603 (Journal of biomolecular screening, 2012).
Structures can show the parent of a compound that is named as a salt. Where two headings read alike, the source gives them in different places.

Legend:
Format in all cases: binding
[1] = target: T1, RVFV nucleocapsid N protein (Rift valley fever virus, UniProt P21700)
[2] = target: T1, RVFV nucleocapsid N protein; assay: biochemical
[3] = target: T1, RVFV nucleocapsid N protein; assay: biochemical; remark: listed apart in the source

T1 sequence (P21700 whole entry, looked up): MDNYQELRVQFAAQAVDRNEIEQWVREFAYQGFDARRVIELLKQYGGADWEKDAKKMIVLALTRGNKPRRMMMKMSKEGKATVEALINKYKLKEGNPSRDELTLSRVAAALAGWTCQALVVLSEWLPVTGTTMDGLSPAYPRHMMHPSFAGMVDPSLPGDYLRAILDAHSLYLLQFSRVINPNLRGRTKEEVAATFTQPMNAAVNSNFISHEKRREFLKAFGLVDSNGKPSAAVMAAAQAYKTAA

Row | Compound | Percent Inhibition HTS [1] [%] | Avg. Hill slope [2] | IC50 [2] [µM] | Avg. Hill slope [3] | IC50 [3] [µM]
1 | CC[C@@]1(O)C(=O)OCc2c1cc1n(c2=O)Cc2cc3c(CN(C)C)c(O)ccc3nc2-1 [topotecan] | 85.9 |  |  |  | 
2 | Cc1ccc(C(=O)Nc2ccc(S(=O)(=O)O)c3cc(S(=O)(=O)O)cc(S(=O)(=O)O)c23)cc1NC(=O)c1cccc(NC(=O)Nc2cccc(C(=O)Nc3cc(C(=O)Nc4ccc(S(=O)(=O)O)c5cc(S(=O)(=O)O)cc(S(=O)(=O)O)c45)ccc3C)c2)c1 [suramin sodium salt] | 93.3 | −2.76 | 16.3 ± 7.3 |  | 
3 | CCN(CC)CCCC(C)Nc1c2ccc(Cl)cc2nc2ccc(OC)cc12 (stereo not shown) [quinacrine dihydrochloride] | 65.7 |  |  | −2.99 | 162 ± 26
4 | Br.CN=c1nc(-c2ccccc2)n(-c2ccccc2)s1 [S 4063] | 50.3 | −1.64 | 6.7 ± 2.9 |  | 
